Measured values published in patent US7488583B2, “Fragment complementation assays for G-protein-coupled receptors and their signaling pathways” (Odyssey Thera, Inc., priority 2003, dated 2009).
“Also recorded” adds a separate entry of the source. Non-standard residues stand in square brackets, D forms with d. Residues, ends and D or L forms follow the SMILES beside them. *: point of attachment. Nle = CCCC[C@H](N)C(=O)O; Cbz = O=C(OCc1ccccc1)*

What was measured:
[1] = molecular target: T1, interaction of the beta-adrenergic receptor with beta-arrestin2 (Homo sapiens, UniProt P07550); format: cell-based; conditions: HEK293T stable line, 480 minutes, concentrations of Table 3
T1 construct: (Gly-Gly-Gly-Gly-Ser)2 linker between receptor and YFP[2]; YFP[2]; (EYFP amino acids 159-239); expressed in transfected cells
Experimental: For the betaARR2/beta2AR, stable cell lines were generated.
Drug concentrations initially were chosen based on literature references and were further refined to ensure lack of toxicity in HEK293 cells, based on lactate dehydrogenase (LDH) toxicity analyses. All liquid handling steps were performed using the Biomek FX platform (Beckman Instruments, Fullerton, Calif.). Cells expressing the betaARR2/beta2AR PCA were incubated in cell culture medium containing drugs for 30 min., 90 min., and 8 hours. […] Cells were subsequently rinsed with HBSS (Invitrogen) and maintained in the same buffer during image acquisition. […] All treatment conditions were run in duplicate yielding a total of 8 images for each wavelength and treatment condition.
For these high-content assays, image analysis is needed to convert the acquired images into fluorescence intensity and, if desired, to resolve the subcellular distribution of the fluorescence signal. […] Raw images in 16-bit grayscale TIFF format were analyzed using ImageJ API/library as described in the literature. […] Next a threshold was established to separate the foreground from background. An iterative algorithm based on Particle Analyzer from ImageJ was applied to the thresholded Hoechst channel image (HI) to obtain the total cell count. The nuclear region of a cell (nuclear mask) was also derived from the thresholded HI. A WGA mask was generated similarly from the thresholded Texas Red image. […] To calculate the global background (gBG), a histogram was obtained from the un-thresholded YI and the pixel intensity of the lowest intensity peak was identified as gBG. […] The mean pixel intensity for all positive particles within each defined sub-region was calculated, resulting in 4 parameters: total positive pixel mean (MT, the mean intensity of the total particle fluorescence); Hoechst mean (M1, the mean intensity of the Hoechst defined region); Texas Red mean (M2, the mean intensity of the WGA-defined region); and Subtracted mean (M3, the mean intensity of the pixels excluded from the WGA- and Hoechst-defined regions). All means were corrected for the corresponding gBG.
For each set of experiments (assay+drug treatment+treatment time), positive pixel data from eight images were pooled. For each parameter, an outlier filter was applied to filter out those particles falling outside the range (mean±3SD) of the group. Next the sample mean or control mean for each parameter was obtained from each filtered group.

[2] = tested on: association of beta-arrestin2 and ubiquitin; assay: beta-arrestin2/ubiquitin PCA (ubiquitination of beta-arrestin2); format: cell-based; conditions: for beta-arrestin2/ubiquitin assay fluorescence, positive pixel mean (PPM) as percent of control (FIG. 12): versus negative control (vehicle alone)
Source text: To illustrate another example of a novel assay constructed using the methods provided herein, we developed a protein-fragment complementation assay to measure the association of beta-arrestin2 and ubiquitin (see FIGS. 11-12) using the methods described here. Ubiquitin is a highly conserved 76-amino acid polypeptide. Since its discovery in the mid-1970s, ubiquitin has been associated with cellular house-keeping functions such as eliminating damaged proteins. It has recently become clear that ubiquitin is involved in a variety of other vital processes at different subcellular locations ranging from the plasma membrane to the nucleus, including cell-cycle progression, signal transduction, transcriptional regulation, receptor down-regulation, and endocytosis. Ubiquitin is covalently attached to proteins through an isopeptide bond between its carboxy-terminal glycine and the epsilon-amino group of lysines in the target protein. This attachment is catalyzed by enzymes that activate and ultimately conjugate the ubiquitin moiety to a lysine residue in the substrate. This can be followed by further additions of ubiquitin to specific lysine residues within the linked ubiquitin itself, resulting in a poly-ubiquitin chain. This covalent modification can be reversed by unique proteases specific for the iso-peptide linkage. Although ubiquitin is the best-characterized polypeptide modifier, other polypeptides (often referred to as Ubiquitin-like, or Ubl) are also conjugated to targets in analogous reactions. These ‘alternative’ modifiers, which differ from ubiquitin in sequence similarity but which are structurally similar to ubiquitin, include SUMO; Nedd8; Hub 1, ISG15 or UCRP; and Apg 12 (reviewed in Aguilar).
Previously, assays for ubiquitination have relied upon immunoblotting of proteins with anti-ubiquitin antibodies, or on labelling of proteins with a fluorophore-tagged ubiquitin polypeptide. […] FIGS. 11-12 show the results of the transient transfection of the PCA constructs. […] Since the process of ubiquitination targets proteins for degradation, we used ALLN (see Table 3 for concentration) to inhibit the proteasome activity of the cell in order to ensure that the arrestin/ubiquitin complex would accumulate in the cells and be detectable. […] The effects of Trichostatin A are particularly interesting in light of recent findings linking HDAC inhibition with the attenuation of cardiac hypertrophy induced by isoproterenol or by overexpression of proteins linked to cardiac growth and proliferation (Cardiac hypertrophy and histone deacetylase-dependent transcriptional repression mediated by the atypical homeodomain protein Hop; H. Kook, et al., J Clin Invest. 2003 September; 112(6):863-71). […]

Row | Compound | fluorescence intensity of the YFP channel as percent of control, later time points (FIG. 10) [1] | beta-arrestin2/ubiquitin assay fluorescence, positive pixel mean (PPM) as percent of control (FIG. 12) [2] | further results
1 | Cc1ccc(S(=O)(=O)/C=C/C#N)cc1 [BAY 11-7082] | had effects only at later time points | – | –
2 | CC(/C=C/C(=O)NO)=C\[C@@H](C)C(=O)c1ccc(N(C)C)cc1 [Trichostatin A] | – | significantly increased the assay signal; also recorded: increased the signal fourfold | –
3 | CC(C)NCC(O)c1ccc(O)c(O)c1 (stereo not drawn) [isoproterenol] | – | – | beta-arrestin2/ubiquitin PCA fluorescence intensity after agonist (FIG. 11) ([2]; in the presence of ALLN, 60-120 minutes): caused a significant increase in fluorescence intensity; also recorded: caused a significant increase in signal
4 | CCCC[C@@H](C=O)NC(=O)[C@H](CC(C)C)NC(=O)[C@H](CC(C)C)NC(C)=O [ALLN] (Ac-Leu-Leu-[Nle]-aldehyde) | – | – | beta-arrestin2/ubiquitin PCA signal with proteasome inhibitor (FIG. 11) ([2]; transient transfection, absence of isoproterenol, ALLN at Table 3 concentration): clearly visible in the presence of ALLN; also recorded: Signal was apparent only in the presence
5 | pertussis toxin | had effects only at later time points | – | –
6 | CC(C)C[C@@H](C=O)NC(=O)[C@H](CC(C)C)NC(=O)[C@H](CC(C)C)NC(=O)OCc1ccccc1 [MG132] (Cbz-Leu-Leu-Leu-aldehyde) | – | significantly increased the assay signal; also recorded: increased the signal fourfold | –
